{
  "source": "patent US20160359116A1",
  "about": "“Organic Semiconductor Formulations” (SMARTKEM LIMITED, priority 2012, published 2016)",
  "assay": "Solubility of the OSC small molecule and binder in aromatic hydrocarbon and further solvents",
  "assay_type": "physicochemical",
  "from_the_text": "The aromatic hydrocarbon solvent of the multi-solvent formulation is capable of dissolving at least 0.5% by weight of the polycrystalline small molecule of the present invention, more preferably greater than 1%.\nThe further (subsidiary) solvent(s) are preferably less solubilising of the polycrystalline small molecule and typically dissolve less than 0.2% by weight of the small molecule OSC, more preferably less than 0.1% by weight, more preferably less than 0.05% by weight.\nPreferably, the semiconducting binder of the invention is essentially insoluble in the further solvent.",
  "data": [
    {"smiles": "CC[Si](C#Cc1c2cc3c(C)ccc(C)c3cc2c(C#C[Si](CC)(CC)CC)c2cc3c(C)ccc(C)c3cc12)(CC)CC", "note": "[1,4,8,11-tetramethyl, 6,13-bis-(triethylsilylethynyl)pentacene]", "values": [
      {"measurement": "Solubility", "setting": "in 2-Bromomesitylene", "value": 1.4, "unit": "% w/v"},
      {"measurement": "Solubility", "setting": "in Bromobenzene", "value": 3.5, "unit": "% w/v"},
      {"measurement": "Solubility", "setting": "in Cyclohexane", "value": "<0.1", "unit": "%"},
      {"measurement": "Solubility", "setting": "in Mesitylene", "value": "~1", "unit": "% w/v"},
      {"measurement": "Solubility", "setting": "in Methyl ethyl ketone (MEK)", "value": "Insol."},
      {"measurement": "Solubility", "setting": "in Propan-2-ol", "value": "Insol."},
      {"measurement": "Solubility", "setting": "in Tetralin", "value": 0.6, "unit": "% w/v"},
      {"measurement": "Solubility", "setting": "in n-Heptane", "value": "<0.1", "unit": "%"},
      {"measurement": "Solubility", "setting": "in n-Octane", "value": "<0.1", "unit": "%"}
    ]}
  ]
}
